# The source made the active and inactive calls. The rule behind the calls is not given here.
# Columns and labels:
# [1] = target: T1, Tyrosine-protein kinase JAK2 (Homo sapiens, UniProt O60674); test: Inhibition of N-terminal His-tagged human JAK2 (826 to 1132 residues) expressed in Sf21 cells incubated for 30 mins in presence of ATP by LANCE Ultra assay
# [2] = target: T2, Tyrosine-protein kinase JAK3 (Homo sapiens, UniProt P52333); test: Inhibition of N-terminal His-tagged human JAK3 (795 to 1124 residues) expressed in Sf21 cells incubated for 30 mins in presence of ATP by LANCE Ultra assay
# T2 sequence (P52333 whole entry): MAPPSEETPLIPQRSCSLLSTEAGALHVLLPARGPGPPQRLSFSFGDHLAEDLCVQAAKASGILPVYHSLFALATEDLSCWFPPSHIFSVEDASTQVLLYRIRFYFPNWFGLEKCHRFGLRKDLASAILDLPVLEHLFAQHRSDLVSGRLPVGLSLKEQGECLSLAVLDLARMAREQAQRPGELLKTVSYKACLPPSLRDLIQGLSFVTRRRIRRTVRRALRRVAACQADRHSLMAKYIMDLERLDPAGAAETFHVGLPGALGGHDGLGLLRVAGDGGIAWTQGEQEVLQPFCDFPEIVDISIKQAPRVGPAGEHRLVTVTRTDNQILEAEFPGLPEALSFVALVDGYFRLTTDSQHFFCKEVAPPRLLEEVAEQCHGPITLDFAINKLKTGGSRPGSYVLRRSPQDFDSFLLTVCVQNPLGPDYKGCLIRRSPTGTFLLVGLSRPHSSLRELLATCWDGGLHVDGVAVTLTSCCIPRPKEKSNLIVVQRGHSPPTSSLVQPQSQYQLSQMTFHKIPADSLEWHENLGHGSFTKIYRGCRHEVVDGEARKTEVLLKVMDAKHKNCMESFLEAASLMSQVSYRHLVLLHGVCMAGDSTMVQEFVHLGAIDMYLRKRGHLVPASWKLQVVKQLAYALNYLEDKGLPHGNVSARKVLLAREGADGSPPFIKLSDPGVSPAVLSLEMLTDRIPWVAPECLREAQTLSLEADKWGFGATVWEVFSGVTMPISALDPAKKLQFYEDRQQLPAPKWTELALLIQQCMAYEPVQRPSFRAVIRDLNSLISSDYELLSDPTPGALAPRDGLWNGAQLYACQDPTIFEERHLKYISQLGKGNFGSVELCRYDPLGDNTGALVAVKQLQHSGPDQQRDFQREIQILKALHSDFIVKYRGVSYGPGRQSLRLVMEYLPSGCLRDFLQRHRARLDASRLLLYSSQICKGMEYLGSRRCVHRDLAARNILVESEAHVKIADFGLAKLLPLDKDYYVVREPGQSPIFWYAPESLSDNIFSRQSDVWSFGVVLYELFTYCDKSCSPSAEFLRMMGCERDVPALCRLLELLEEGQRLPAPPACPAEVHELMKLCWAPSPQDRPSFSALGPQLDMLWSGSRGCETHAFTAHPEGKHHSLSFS
# [3] = Inhibition of IFN-gamma induced PD-L1 protein expression in human SK-OV-3 cells incubated for 48 hrs by high-throughput flow cytometric analysis; details: SK-OV-3, 48 h
# [4] = target: Transcription factor p65 (Homo sapiens) (UniProt Q04206); test: Inhibition of p65 phosphorylation in human SK-OV-3 cells at 2.5 to 10 uM preincubated with compound for 1 hrs followed by IFN-gamma stimulation for 1 hrs by Western blot analysis; type: cell-based; details: dose 2.5-10 µM, time 2.0 hrs
# Chain of Transcription factor p65 (Homo sapiens) (Q04206 whole entry): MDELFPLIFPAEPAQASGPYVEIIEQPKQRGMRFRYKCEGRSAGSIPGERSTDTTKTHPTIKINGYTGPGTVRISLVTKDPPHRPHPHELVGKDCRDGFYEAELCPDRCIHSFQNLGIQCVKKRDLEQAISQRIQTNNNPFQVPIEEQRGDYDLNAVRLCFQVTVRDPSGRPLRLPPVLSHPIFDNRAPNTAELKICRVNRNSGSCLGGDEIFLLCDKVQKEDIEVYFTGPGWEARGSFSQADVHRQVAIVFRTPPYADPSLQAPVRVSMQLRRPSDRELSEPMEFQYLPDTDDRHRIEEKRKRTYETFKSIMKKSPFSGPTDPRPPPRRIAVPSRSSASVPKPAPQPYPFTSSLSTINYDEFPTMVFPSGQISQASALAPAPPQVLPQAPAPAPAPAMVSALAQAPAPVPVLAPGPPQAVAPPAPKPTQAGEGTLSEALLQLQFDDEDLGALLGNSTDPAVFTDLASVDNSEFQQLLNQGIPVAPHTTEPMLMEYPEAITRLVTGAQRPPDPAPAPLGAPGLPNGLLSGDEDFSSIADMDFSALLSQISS
# [5] = Inhibition of IFN-gamma induced PD-L1 protein expression in human A549 cells incubated for 48 hrs by high-throughput flow cytometric analysis; details: A549, 48 h
# [6] = target: Transcription factor p65 (Homo sapiens) (UniProt Q04206); test: Inhibition of p65 phosphorylation in human A549 cells at 2.5 to 10 uM preincubated with compound for 1 hrs followed by IFN-gamma stimulation for 1 hrs by Western blot analysis; type: cell-based; details: dose 2.5-10 µM, time 2.0 hrs
# [7] = Inhibition of IFN-gamma induced PD-L1 protein expression in human BXPC-3 cells incubated for 48 hrs by high-throughput flow cytometric analysis; details: BXPC-3, 48 h
# B16-OVA melanoma cell [8] = test: Sensitization of mouse B16-OVA melanoma cells to OT-1 T cells assessed as increase in antigen specific T-cell killing at 2.5 to 10 uM preincubated with compound in presence of mouse IFN-gamma for 24 hrs followed by OT-1 T cell addition for 24 hrs by crystal violet staining based analysis; type: functional; details: dose 2.5-10 µM, time 48.0 hrs
# [9] = target: T1, Tyrosine-protein kinase JAK2; details: BXPC-3, Lysate, dose 10.0 µM, time 1.0 hrs
# BXPC-3 [10] = test: Effect on cell viability in human BXPC-3 cells at 2.5 to 10 uM incubated for 48 hrs by CellTiter-Glo assay; type: toxicity, cell-based; details: bxpc-3, 48 h, dose 2.5-10 µM
# BXPC-3 [11] = test: Reversal of IFN-gamma induced cell death in human BXPC-3 cells at 2.5 to 10 uM incubated for 48 hrs by microscopic analysis; type: functional, cell-based; details: dose 2.5-10 µM
# BXPC-3 [12] = test: Effect on cell death in human BXPC-3 cells at 2.5 to 10 uM incubated for 48 hrs by microscopic analysis; type: toxicity, cell-based; details: bxpc-3, 48 h, dose 2.5-10 µM
# B16-OVA melanoma cell [13] = test: Sensitization of mouse B16-OVA melanoma cells to OT-1 T cells assessed as reduction in cell viability preincubated with compound in presence of mouse IFN-gamma for 24 hrs followed by OT-1 T cell addition for 24 hrs by CellTiter-Glo assay; type: functional, cell-based; details: dose 2.5-10 µM
# [14] = target: Non-receptor tyrosine-protein kinase TYK2 (Homo sapiens, UniProt P29597); test: Inhibition of N-terminal GST-tagged human TYK2 (871to 1187 residues) expressed in Sf21 cells incubated for 30 mins in presence of ATP by LANCE Ultra assay
# Chain of Non-receptor tyrosine-protein kinase TYK2 (P29597 whole entry, the tested form may be a part): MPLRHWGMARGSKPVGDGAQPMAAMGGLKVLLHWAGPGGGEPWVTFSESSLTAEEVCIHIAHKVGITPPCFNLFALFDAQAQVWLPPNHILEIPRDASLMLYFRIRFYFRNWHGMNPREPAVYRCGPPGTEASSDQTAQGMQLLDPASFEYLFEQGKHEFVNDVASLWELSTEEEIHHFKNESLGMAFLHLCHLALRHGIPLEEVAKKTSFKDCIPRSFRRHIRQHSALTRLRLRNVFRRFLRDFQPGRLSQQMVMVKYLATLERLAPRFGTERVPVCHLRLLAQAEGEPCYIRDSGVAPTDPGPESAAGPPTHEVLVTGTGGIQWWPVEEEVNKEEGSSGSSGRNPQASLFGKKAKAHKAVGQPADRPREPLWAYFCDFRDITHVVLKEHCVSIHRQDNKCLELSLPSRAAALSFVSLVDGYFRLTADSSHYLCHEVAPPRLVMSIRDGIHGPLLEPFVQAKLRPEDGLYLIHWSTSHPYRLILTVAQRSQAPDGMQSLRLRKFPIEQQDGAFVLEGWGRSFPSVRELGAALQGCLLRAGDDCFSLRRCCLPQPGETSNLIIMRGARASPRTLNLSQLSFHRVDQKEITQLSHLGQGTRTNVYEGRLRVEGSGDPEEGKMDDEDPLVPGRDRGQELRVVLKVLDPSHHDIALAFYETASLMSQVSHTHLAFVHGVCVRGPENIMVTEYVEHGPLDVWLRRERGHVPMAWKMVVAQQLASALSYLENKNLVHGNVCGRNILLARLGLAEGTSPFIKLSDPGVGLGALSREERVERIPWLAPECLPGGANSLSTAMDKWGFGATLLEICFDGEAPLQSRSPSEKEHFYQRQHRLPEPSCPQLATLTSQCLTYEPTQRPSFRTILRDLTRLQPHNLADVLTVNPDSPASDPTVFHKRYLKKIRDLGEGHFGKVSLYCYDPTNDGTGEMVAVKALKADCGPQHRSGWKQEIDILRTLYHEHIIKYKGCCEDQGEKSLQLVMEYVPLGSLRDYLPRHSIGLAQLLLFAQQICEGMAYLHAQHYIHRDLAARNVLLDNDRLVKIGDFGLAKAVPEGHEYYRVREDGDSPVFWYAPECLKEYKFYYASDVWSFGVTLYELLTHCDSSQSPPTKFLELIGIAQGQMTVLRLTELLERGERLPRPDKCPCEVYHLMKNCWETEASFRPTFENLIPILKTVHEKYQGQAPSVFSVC
# [15] = target: Transcription factor p65 (Homo sapiens) (UniProt Q04206); test: Inhibition of p65 phosphorylation in human BXPC-3 cells at 2.5 to 10 uM preincubated with compound for 1 hrs followed by IFN-gamma stimulation for 1 hrs by Western blot analysis; type: cell-based; details: dose 2.5-10 µM, time 2.0 hrs
# T1 sequence (O60674 whole entry, the tested form may be a part): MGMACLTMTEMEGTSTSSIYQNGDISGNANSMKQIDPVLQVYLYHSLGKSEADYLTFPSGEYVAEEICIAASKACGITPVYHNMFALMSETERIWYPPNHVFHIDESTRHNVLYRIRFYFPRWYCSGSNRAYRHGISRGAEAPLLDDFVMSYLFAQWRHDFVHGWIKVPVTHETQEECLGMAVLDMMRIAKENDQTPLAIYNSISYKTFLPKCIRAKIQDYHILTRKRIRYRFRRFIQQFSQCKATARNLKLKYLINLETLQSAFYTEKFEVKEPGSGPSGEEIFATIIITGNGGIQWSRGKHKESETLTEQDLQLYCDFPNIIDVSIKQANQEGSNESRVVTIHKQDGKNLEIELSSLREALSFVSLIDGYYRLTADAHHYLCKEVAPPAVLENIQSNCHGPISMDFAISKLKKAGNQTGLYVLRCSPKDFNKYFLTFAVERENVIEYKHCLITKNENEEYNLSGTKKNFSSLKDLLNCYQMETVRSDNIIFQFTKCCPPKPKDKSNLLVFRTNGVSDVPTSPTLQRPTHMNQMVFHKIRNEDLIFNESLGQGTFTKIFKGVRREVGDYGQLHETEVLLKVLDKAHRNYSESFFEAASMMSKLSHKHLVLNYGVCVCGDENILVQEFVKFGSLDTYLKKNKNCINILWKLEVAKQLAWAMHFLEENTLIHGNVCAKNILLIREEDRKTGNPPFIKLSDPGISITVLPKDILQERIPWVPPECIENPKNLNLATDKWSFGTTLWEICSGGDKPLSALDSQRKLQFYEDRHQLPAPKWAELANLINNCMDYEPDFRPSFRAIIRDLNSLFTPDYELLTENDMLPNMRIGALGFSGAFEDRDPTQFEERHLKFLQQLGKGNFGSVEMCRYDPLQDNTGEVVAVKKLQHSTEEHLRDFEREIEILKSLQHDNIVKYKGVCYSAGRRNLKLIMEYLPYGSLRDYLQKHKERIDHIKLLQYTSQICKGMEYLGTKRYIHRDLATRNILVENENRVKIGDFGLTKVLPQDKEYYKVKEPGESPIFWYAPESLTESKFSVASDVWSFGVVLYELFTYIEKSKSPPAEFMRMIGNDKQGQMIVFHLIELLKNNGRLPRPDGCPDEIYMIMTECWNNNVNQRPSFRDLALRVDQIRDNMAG
compound,measurement,setting,value
C/C(=C\C[C@@H](C)[C@H]1CC[C@H]2[C@@H]3C[C@H](OS(=O)(=O)[O-])[C@H]4C[C@H](OS(=O)(=O)[O-])[C@@H](OS(=O)(=O)[O-])C[C@]4(C)[C@H]3CC[C@]12C)C(C)(C)C(C)C.[Na+].[Na+].[Na+],IC50,[1],1200 nM
same,IC50,[2],520 nM
same,IC50,[3],6500 nM
same,inhibition,[4],inactive
same,IC50,[5],2800 nM
same,inhibition,[6],inactive
same,IC50,[7],4100 nM
same,Activity,B16-OVA melanoma cell [8],Active
same,ΔTm,[9],11 °C
same,Activity,BXPC-3 [10],Non-Toxic
same,Activity,BXPC-3 [11],Active
same,Activity,BXPC-3 [12],Non-Toxic
same,Activity,B16-OVA melanoma cell [13],Dose-Dependent Effect
same,IC50,[14],530 nM
same,inhibition,[15],inactive

# Source: ChEMBL document CHEMBL5385928, “Sokotrasterol Sulfate Suppresses IFN-γ-Induced PD-L1 Expression by Inhibiting JAK Activity” (J Nat Prod, 2024)
